US20090270371A1, “QUINOLINE DERIVATIVES USEFUL IN THE TREATMENT OF MGLUR5 RECEPTOR-MEDIATED DISORDERS” (priority 2005, published 2009)

The molecules below were run against T1, rat mGluR5 receptors (Rattus norvegicus, UniProt P31424) (assay: mGluR5 receptor binding test, rat cerebro-cortical membrane preparation, [3H]-M-MPEP). Conditions: affinity for rat mGluR5 receptors; [3H]-M-MPEP (2 nM) radioligand.
T1 construct: rat cerebro-cortical membrane preparation was used; from tissue; host or cells: rat cerebral cortex membranes
Method: The mGluR5 receptor binding was determined according to the modified method of Gasparini et. al. (Bioorg. Med. Chem. Lett., 2000, 12, 407). Based on the high homology between the human and rat mGluR5 receptors, rat cerebro-cortical membrane preparation was used to determine the binding characteristics of the reference compounds and novel compounds to the rat mGluR5. The A18 cell line expressing hmGluR5a (purchased from Euroscreen) was used to determine binding characteristics of the chemical compounds to the human mGluR5a receptor. [^3H]-M-MPEP (2 nM) was used as radioligand. The nonspecific binding was determined in the presence of 10 μM M-MPEP.

T1 sequence (P31424 21-1203): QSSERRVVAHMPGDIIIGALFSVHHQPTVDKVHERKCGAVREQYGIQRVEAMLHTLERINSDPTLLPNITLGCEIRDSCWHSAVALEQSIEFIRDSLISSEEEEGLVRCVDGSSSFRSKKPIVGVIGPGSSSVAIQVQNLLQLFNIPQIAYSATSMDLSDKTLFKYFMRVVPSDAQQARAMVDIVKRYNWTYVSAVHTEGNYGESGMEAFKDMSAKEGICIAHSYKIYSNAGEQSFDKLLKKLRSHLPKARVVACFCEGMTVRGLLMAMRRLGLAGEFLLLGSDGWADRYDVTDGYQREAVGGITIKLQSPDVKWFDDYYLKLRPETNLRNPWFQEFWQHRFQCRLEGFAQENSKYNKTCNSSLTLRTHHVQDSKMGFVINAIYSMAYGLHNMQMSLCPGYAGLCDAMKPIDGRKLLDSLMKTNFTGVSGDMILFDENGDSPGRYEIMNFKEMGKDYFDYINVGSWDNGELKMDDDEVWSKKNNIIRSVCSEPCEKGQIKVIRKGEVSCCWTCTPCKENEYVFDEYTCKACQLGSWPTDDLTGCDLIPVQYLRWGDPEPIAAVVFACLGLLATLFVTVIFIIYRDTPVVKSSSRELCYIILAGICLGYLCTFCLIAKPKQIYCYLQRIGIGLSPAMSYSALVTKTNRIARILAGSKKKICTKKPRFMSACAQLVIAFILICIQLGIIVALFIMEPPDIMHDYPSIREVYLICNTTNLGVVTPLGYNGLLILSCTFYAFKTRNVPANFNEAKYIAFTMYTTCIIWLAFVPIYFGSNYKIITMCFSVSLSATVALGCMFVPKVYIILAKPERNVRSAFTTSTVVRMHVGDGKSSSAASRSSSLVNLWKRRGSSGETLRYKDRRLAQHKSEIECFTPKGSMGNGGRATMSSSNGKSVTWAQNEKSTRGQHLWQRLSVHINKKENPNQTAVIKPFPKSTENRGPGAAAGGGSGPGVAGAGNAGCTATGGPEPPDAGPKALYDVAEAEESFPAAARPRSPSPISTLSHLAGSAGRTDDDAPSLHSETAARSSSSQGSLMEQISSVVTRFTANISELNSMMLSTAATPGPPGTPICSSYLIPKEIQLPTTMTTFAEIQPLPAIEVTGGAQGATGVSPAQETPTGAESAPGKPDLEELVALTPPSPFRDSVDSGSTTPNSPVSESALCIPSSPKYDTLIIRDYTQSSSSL

SMILES	Ki
Cc1ccc(S(=O)(=O)c2cnc3ccccc3c2N2CCOCC2)cc1C [Compound 1, 3-(3,4-Dimethyl-benzenesulfonyl)-4-(morpholin-4-yl)-quinoline]	< 200 nM
Cc1ccc(S(=O)(=O)c2cnc3ccccc3c2N2CCC(C)CC2)cc1 [Compound 2, 3-(4-Methyl-benzenesulfonyl)-4-(4-methyl-piperidin-1-yl)-quinoline]	< 200 nM
Cc1ccc(S(=O)(=O)c2cnc3ccccc3c2N2CCC(C)CC2)cc1C [Compound 3, 3-(3,4-Dimethyl-benzenesulfonyl)-4-(4-methyl-piperidin-1-yl)-quinoline]	< 200 nM
Cc1ccc(S(=O)(=O)c2cnc3ccccc3c2N2CCCC(C)C2)cc1 (stereo not drawn) [Compound 4, 3-(4-Methyl-benzenesulfonyl)-4-(3-methyl-piperidin-1-yl)-quinoline]	< 200 nM
Cc1ccc(S(=O)(=O)c2cnc3ccccc3c2N2CCCCC2)cc1 [Compound 6]	< 200 nM
COc1cc2ncc(S(=O)(=O)c3ccccc3)c(N3CCOCC3)c2cc1OC [Compound 7]	> 500 nM
COc1ccc(S(=O)(=O)c2cnc3ccc(Cl)cc3c2NCc2ccccc2)cc1 [Compound 11]	> 500 nM
CCc1ccc2ncc(S(=O)(=O)c3ccc(OC)cc3)c(N(CC)CC)c2c1 [Compound 12]	> 500 nM
O=S(=O)(c1ccccc1)c1cnc2ccc(F)cc2c1N1CCN(Cc2ccccc2)CC1 [Compound 13]	> 500 nM
Cc1ccc(S(=O)(=O)c2cnc3ccc(F)cc3c2N2CCC(C)CC2)cc1 [Compound 14]	200 to 500 nM
COc1ccc2ncc(S(=O)(=O)c3ccc(Cl)cc3)c(N3CCC(C)CC3)c2c1 [Compound 15]	> 500 nM
O=S(=O)(c1ccccc1)c1cnc2ccccc2c1Nc1ccccc1 [Compound 20]	> 500 nM
Cc1ccc(Nc2c(S(=O)(=O)c3ccc(C)cc3)cnc3ccccc23)cc1 [Compound 21]	> 500 nM
Cc1ccc(Nc2c(S(=O)(=O)c3ccc(Cl)cc3)cnc3ccccc23)cc1C [Compound 22]	> 500 nM
COc1cccc(Nc2c(S(=O)(=O)c3ccccc3)cnc3ccc(OC)cc23)c1 [Compound 23]	> 500 nM
COc1ccc(Nc2c(S(=O)(=O)c3ccc(C)cc3)cnc3ccccc23)cc1OC [Compound 24]	> 500 nM
Cc1ccc(S(=O)(=O)c2cnc3ccccc3c2Nc2ccc(F)cc2)cc1 [Compound 25]	> 500 nM
Cc1ccc(S(=O)(=O)c2cnc3ccccc3c2Nc2ccc3c(c2)OCCO3)cc1 [Compound 27]	> 500 nM
Cc1ccc(S(=O)(=O)c2cnc3ccc(C)cc3c2NCc2ccc(F)cc2)cc1 [Compound 29]	> 500 nM
Cc1ccc(S(=O)(=O)c2cnc3ccc(F)cc3c2N2CCCCCC2)cc1 [Compound 33]	> 500 nM
O=S(=O)(c1ccc(Cl)cc1)c1cnc2ccccc2c1N1CCCCCC1 [Compound 34]	200 to 500 nM
CCc1ccc2ncc(S(=O)(=O)c3ccccc3)c(N3CCCC3)c2c1 [Compound 35]	> 500 nM
Cc1ccc(S(=O)(=O)c2cnc3ccc(C)cc3c2N2CCCCC2)cc1 [Compound 41]	> 500 nM
O=S(=O)(c1ccc(Cl)cc1)c1cnc2ccccc2c1N1CCCCC1 [Compound 43]	> 500 nM

SMILES	Ki
CCc1ccc2ncc(S(=O)(=O)c3ccccc3)c(N3CCCCC3)c2c1 [Compound 45]	> 500 nM
Cc1ccc(S(=O)(=O)c2cnc3ccc(C)cc3c2N2CCC(C)CC2)cc1 [Compound 46]	< 200 nM
Cc1ccc2ncc(S(=O)(=O)c3ccccc3)c(N3CCC(C)CC3)c2c1 [Compound 49]	> 500 nM
COc1ccc2ncc(S(=O)(=O)c3ccc(C)cc3)c(N3CCC(C)CC3)c2c1 [Compound 50]	> 500 nM
CCOC(=O)C1CCN(c2c(S(=O)(=O)c3ccc(Cl)cc3)cnc3ccc(CC)cc23)CC1 [Compound 53]	< 200 nM
CCOC(=O)C1CCN(c2c(S(=O)(=O)c3ccc(C)cc3)cnc3ccccc23)CC1 [Compound 54]	> 500 nM
CCOC(=O)C1CCN(c2c(S(=O)(=O)c3ccc(C)cc3)cnc3ccc(F)cc23)CC1 [Compound 55]	> 500 nM
CCOC(=O)C1CCCN(c2c(S(=O)(=O)c3ccc(C)cc3)cnc3ccc(OC)cc23)C1 (stereo not drawn) [Compound 58]	> 500 nM
Cc1ccc(S(=O)(=O)c2cnc3ccc(C)cc3c2N2CCC(C(N)=O)CC2)cc1 [Compound 59]	> 500 nM
O=S(=O)(c1ccccc1)c1cnc2ccccc2c1N1CCC2(CC1)OCCO2 [Compound 60]	> 500 nM
CN1CCN(c2c(S(=O)(=O)c3ccc(Cl)cc3)cnc3ccccc23)CC1 [Compound 61]	> 500 nM
CCN1CCN(c2c(S(=O)(=O)c3ccc(Cl)cc3)cnc3ccc(C)cc23)CC1 [Compound 62]	> 500 nM
Cc1ccc(S(=O)(=O)c2cnc3ccc(C)cc3c2N2CCN(Cc3ccccc3)CC2)cc1 [Compound 65]	> 500 nM
CCc1ccc2ncc(S(=O)(=O)c3ccccc3)c(N3CCN(Cc4ccccc4)CC3)c2c1 [Compound 66]	> 500 nM
Cc1ccc(S(=O)(=O)c2cnc3ccc(F)cc3c2N2CCN(c3ccccc3)CC2)cc1 [Compound 67]	> 500 nM
Cc1ccc(N2CCN(c3c(S(=O)(=O)c4ccccc4)cnc4ccc(F)cc34)CC2)c(C)c1 [Compound 68]	> 500 nM
COc1ccc2ncc(S(=O)(=O)c3ccccc3)c(N3CCN(c4cccc(C)c4C)CC3)c2c1 [Compound 69]	> 500 nM
O=S(=O)(c1ccccc1)c1cnc2ccccc2c1N1CCN(c2cccc(Cl)c2)CC1 [Compound 71]	> 500 nM
Cc1ccc(S(=O)(=O)c2cnc3ccc(C)cc3c2N2CCN(c3ccccc3F)CC2)cc1 [Compound 73]	> 500 nM
COc1ccc(N2CCN(c3c(S(=O)(=O)c4ccc(Cl)cc4)cnc4ccc(C)cc34)CC2)cc1 [Compound 75]	> 500 nM
CCN(CC)c1c(S(=O)(=O)c2ccc(C)cc2)cnc2ccccc12 [Compound 76]	200 to 500 nM
Cc1ccc(S(=O)(=O)c2cnc3ccccc3c2NCc2ccccc2)cc1 [Compound 77]	< 200 nM
COc1ccc2ncc(S(=O)(=O)c3ccc(Cl)cc3)c(NCc3ccccc3)c2c1 [Compound 78]	> 500 nM
O=S(=O)(c1ccc(Cl)cc1)c1cnc2ccccc2c1N1CCN(Cc2ccccc2)CC1 [Compound 79]	200 to 500 nM

Second part, the molecule after the results:

Ki	SMILES
200 to 500 nM	O=S(=O)(c1ccccc1)c1cnc2ccccc2c1N1CCCCC1 [Compound 5]
> 500 nM	O=S(=O)(c1ccc(N2CCCCC2)cc1)c1cnc2ccc(Cl)cc2c1N1CCCCC1 [Compound 8]
< 200 nM	CCN(CC)c1c(S(=O)(=O)c2ccc(Cl)cc2)cnc2ccc(C)cc12 [Compound 9]
> 500 nM	CCN1CCN(c2c(S(=O)(=O)c3ccc(F)cc3)cnc3ccc(Cl)cc23)CC1 [Compound 10]
< 200 nM	CCOc1ccc2ncc(S(=O)(=O)c3ccc(Cl)cc3)c(NCc3ccc(F)cc3)c2c1 [Compound 16]
> 500 nM	CCN(CC)c1c(S(=O)(=O)c2ccc(Cl)cc2)cnc2cc3c(cc12)OCCO3 [Compound 18]
> 500 nM	CCN1CCN(c2c(S(=O)(=O)c3ccc(C)c(C)c3)cnc3cc4c(cc23)OCO4)CC1 [Compound 19]
> 500 nM	Cc1ccc(S(=O)(=O)c2cnc3ccc(C)cc3c2Nc2ccc(Cl)cc2)cc1 [Compound 26]
> 500 nM	Cc1ccc(S(=O)(=O)c2cnc3ccc(C)cc3c2NCc2ccccc2)cc1 [Compound 28]
> 500 nM	CCc1ccc2ncc(S(=O)(=O)c3ccc(Cl)cc3)c(NCc3ccc(C)cc3)c2c1 [Compound 30]
> 500 nM	COc1ccc(CNc2c(S(=O)(=O)c3ccc(Cl)cc3)cnc3ccccc23)cc1 [Compound 31]
< 200 nM	Cc1ccc(S(=O)(=O)c2cnc3ccccc3c2N2CCCCCC2)cc1 [Compound 32]
> 500 nM	CCOc1ccc2ncc(S(=O)(=O)c3ccccc3)c(N3CCCC3)c2c1 [Compound 36]
> 500 nM	O=S(=O)(c1ccccc1)c1cnc2ccc(Cl)cc2c1N1CCCC1 [Compound 37]
> 500 nM	Cc1ccc(S(=O)(=O)c2cnc3ccc(Cl)cc3c2N2CCOCC2)cc1C [Compound 38]
> 500 nM	Cc1ccc2ncc(S(=O)(=O)c3ccc(Cl)cc3)c(N3CCOCC3)c2c1 [Compound 39]
> 500 nM	O=S(=O)(c1ccc(Cl)cc1)c1cnc2ccccc2c1N1CCOCC1 [Compound 40]
> 500 nM	Cc1ccc(S(=O)(=O)c2cnc3cc4c(cc3c2N2CCCCC2)OCCO4)cc1 [Compound 42]
> 500 nM	COc1ccc(S(=O)(=O)c2cnc3ccc(OC)cc3c2N2CCCCC2)cc1 [Compound 44]
< 200 nM	CC1CCN(c2c(S(=O)(=O)c3ccccc3)cnc3ccccc23)CC1 [Compound 47]
< 200 nM	CC1CCN(c2c(S(=O)(=O)c3ccccc3)cnc3cc4c(cc23)OCCO4)CC1 [Compound 48]
< 200 nM	CCc1ccc2ncc(S(=O)(=O)c3ccc(OC)cc3)c(N3CCC(C)CC3)c2c1 [Compound 51]
> 500 nM	CCOC(=O)C1CCN(c2c(S(=O)(=O)c3ccc(C)cc3)cnc3ccc(CC)cc23)CC1 [Compound 52]
> 500 nM	CCOC(=O)C1CCCN(c2c(S(=O)(=O)c3ccc(C)cc3)cnc3ccccc23)C1 (stereo not drawn) [Compound 56]
> 500 nM	CCOC(=O)C1CCCN(c2c(S(=O)(=O)c3ccccc3)cnc3ccc(CC)cc23)C1 (stereo not drawn) [Compound 57]
> 500 nM	CCc1ccc2ncc(S(=O)(=O)c3ccccc3)c(N3CCN(CC)CC3)c2c1 [Compound 63]
> 500 nM	O=S(=O)(c1ccccc1)c1cnc2ccccc2c1N1CCN(Cc2ccccc2)CC1 [Compound 64]
> 500 nM	Cc1ccc(S(=O)(=O)c2cnc3ccccc3c2N2CCN(c3cc(C)ccc3C)CC2)cc1 [Compound 70]
> 500 nM	O=S(=O)(c1ccc(Cl)cc1)c1cnc2ccccc2c1N1CCN(c2ccc(F)cc2)CC1 [Compound 72]
> 500 nM	COc1ccccc1N1CCN(c2c(S(=O)(=O)c3ccc(C)cc3)cnc3ccccc23)CC1 [Compound 74]
